Test results from PubChem BioAssay (NCI).
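Test compounds were applied to cells in 96-well plates for 48 hours at 5 doses. GI50 is the concentration that inhibits growth by half. At the TGI there is no net growth.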

Experiments:
Assay in all cases: NCI anticancer screen, dose series, 48 h
HS 578T breast = tested on: HS 578T breast
HCC-2998 colon = tested on: HCC-2998 colon
DU-145 prostate = tested on: DU-145 prostate
NCI-H522 lung = tested on: NCI-H522 lung
CAKI-1 renal = tested on: CAKI-1 renal
SK-MEL-2 melanoma = tested on: SK-MEL-2 melanoma
OVCAR-8 ovarian = tested on: OVCAR-8 ovarian
SF-295 CNS = tested on: SF-295 CNS
NCI-H226 lung = tested on: NCI-H226 lung
RPMI-8226 leukemia = tested on: RPMI-8226 leukemia
MOLT-4 leukemia = tested on: MOLT-4 leukemia
TK-10 renal = tested on: TK-10 renal
NCI/ADR-RES ovarian = tested on: NCI/ADR-RES ovarian
HT29 colon = tested on: HT29 colon
T-47D breast = tested on: T-47D breast
COLO 205 colon = tested on: COLO 205 colon
HL-60(TB) leukemia = tested on: HL-60(TB) leukemia
SNB-19 CNS = tested on: SNB-19 CNS
UO-31 renal = tested on: UO-31 renal
NCI-H460 lung = tested on: NCI-H460 lung
PC-3 prostate = tested on: PC-3 prostate
SN12C renal = tested on: SN12C renal
IGROV1 ovarian = tested on: IGROV1 ovarian
SW-620 colon = tested on: SW-620 colon
MDA-MB-435 = tested on: MDA-MB-435
HCT-116 colon = tested on: HCT-116 colon
A549 NSCLC = tested on: A549 NSCLC
ACHN renal = tested on: ACHN renal
LOX IMVI melanoma = tested on: LOX IMVI melanoma
M14 melanoma = tested on: M14 melanoma
EKVX NSCLC = tested on: EKVX NSCLC
MDA-MB-231 breast = tested on: MDA-MB-231 breast
HOP-92 NSCLC = tested on: HOP-92 NSCLC
786-0 renal = tested on: 786-0 renal
OVCAR-3 ovarian = tested on: OVCAR-3 ovarian
SK-MEL-28 melanoma = tested on: SK-MEL-28 melanoma
BT-549 breast = tested on: BT-549 breast
RXF 393 renal = tested on: RXF 393 renal
MCF7 breast = tested on: MCF7 breast
HOP-62 NSCLC = tested on: HOP-62 NSCLC
SK-MEL-5 melanoma = tested on: SK-MEL-5 melanoma
OVCAR-4 ovarian = tested on: OVCAR-4 ovarian
U251 CNS = tested on: U251 CNS
UACC-257 melanoma = tested on: UACC-257 melanoma
KM12 colon = tested on: KM12 colon
CCRF-CEM leukemia = tested on: CCRF-CEM leukemia
SF-268 CNS = tested on: SF-268 CNS
SK-OV-3 ovarian = tested on: SK-OV-3 ovarian
OVCAR-5 ovarian = tested on: OVCAR-5 ovarian
HCT-15 colon = tested on: HCT-15 colon
MALME-3M melanoma = tested on: MALME-3M melanoma
NCI-H23 lung = tested on: NCI-H23 lung
SF-539 CNS = tested on: SF-539 CNS
SNB-75 CNS = tested on: SNB-75 CNS
A498 renal = tested on: A498 renal
K-562 leukemia = tested on: K-562 leukemia
SR leukemia = tested on: SR leukemia
UACC-62 melanoma = tested on: UACC-62 melanoma

## Cc1ccc2c(n1)C(=O)C(Cl)=C(Nc1ccc(C#N)cc1)C2=O
HS 578T breast
  GI50: 14.6 µM
  TGI: 56.1 µM
HCC-2998 colon
  GI50: 3.83 µM
  TGI: 16.1 µM
DU-145 prostate
  GI50: 2.13 µM
  TGI: 4.48 µM
NCI-H522 lung
  GI50: 1.75 µM
  TGI: 3.75 µM
CAKI-1 renal
  GI50: 1.7 µM
  TGI: 3.31 µM
SK-MEL-2 melanoma
  GI50: 11.6 µM
  TGI: 24.6 µM
OVCAR-8 ovarian
  GI50: 10.1 µM
  TGI: 28.2 µM
SF-295 CNS
  GI50: 17.6 µM
  TGI: 39.2 µM
NCI-H226 lung
  GI50: 4.36 µM
  TGI: 17.6 µM
RPMI-8226 leukemia
  GI50: 2.19 µM
  TGI: 5.74 µM
MOLT-4 leukemia
  GI50: 0.47 µM
  TGI: 2.56 µM
TK-10 renal
  GI50: 1.83 µM
  TGI: 3.27 µM
NCI/ADR-RES ovarian
  GI50: 3.55 µM
  TGI: 17.7 µM
HT29 colon
  GI50: 3.06 µM
  TGI: 10.6 µM
T-47D breast
  GI50: 1.87 µM
  TGI: 4.79 µM
COLO 205 colon
  GI50: 1.66 µM
  TGI: 3.51 µM
HL-60(TB) leukemia
  GI50: 1.08 µM
  TGI: 3.05 µM
SNB-19 CNS
  GI50: 15.7 µM
  TGI: 39.8 µM
UO-31 renal
  GI50: 1.54 µM
  TGI: 2.97 µM
NCI-H460 lung
  GI50: 30.2 µM
  TGI: > 100 µM
PC-3 prostate
  GI50: 10 µM
  TGI: 25.1 µM
SN12C renal
  GI50: 5.68 µM
  TGI: 25.4 µM
IGROV1 ovarian
  GI50: 10.7 µM
  TGI: 24.7 µM
SW-620 colon
  GI50: 1.76 µM
  TGI: 3.87 µM
MDA-MB-435
  GI50: 6.99 µM
  TGI: 22.7 µM
HCT-116 colon
  GI50: 1.83 µM
  TGI: 3.78 µM
A549 NSCLC
  GI50: 35.6 µM
  TGI: > 100 µM
ACHN renal
  GI50: 1.81 µM
  TGI: 3.3 µM
LOX IMVI melanoma
  GI50: 1.53 µM
  TGI: 3.46 µM
M14 melanoma
  GI50: 6.12 µM
  TGI: 21.9 µM
EKVX NSCLC
  GI50: 2.19 µM
  TGI: 5.59 µM
MDA-MB-231 breast
  GI50: 5.59 µM
  TGI: 25.8 µM
HOP-92 NSCLC
  GI50: 1.71 µM
  TGI: 3.41 µM
786-0 renal
  GI50: 1.74 µM
  TGI: 3.24 µM
OVCAR-3 ovarian
  GI50: 1.84 µM
  TGI: 3.51 µM
SK-MEL-28 melanoma
  GI50: 2.46 µM
  TGI: 5.74 µM
BT-549 breast
  GI50: 2.8 µM
  TGI: 12 µM
RXF 393 renal
  GI50: 1.45 µM
  TGI: 2.79 µM
MCF7 breast
  GI50: 1.9 µM
  TGI: 4.62 µM
HOP-62 NSCLC
  GI50: 17.9 µM
  TGI: 50.7 µM
SK-MEL-5 melanoma
  GI50: 4.75 µM
  TGI: 17.3 µM
OVCAR-4 ovarian
  GI50: 1.59 µM
  TGI: 3.08 µM
U251 CNS
  GI50: 13 µM
  TGI: 28.7 µM
UACC-257 melanoma
  GI50: 1.64 µM
  TGI: 3.17 µM
KM12 colon
  GI50: 19.9 µM
  TGI: > 100 µM
CCRF-CEM leukemia
  GI50: 0.358 µM
  TGI: 2.2 µM
SF-268 CNS
  GI50: 8.36 µM
  TGI: 25.6 µM
SK-OV-3 ovarian
  GI50: 11.7 µM
  TGI: 27.7 µM
OVCAR-5 ovarian
  GI50: 17.7 µM
  TGI: 34.8 µM
HCT-15 colon
  GI50: 1.74 µM
  TGI: 3.66 µM
MALME-3M melanoma
  GI50: 1.74 µM
  TGI: 3.36 µM
NCI-H23 lung
  GI50: 1.84 µM
  TGI: 4.58 µM
SF-539 CNS
  GI50: 10.2 µM
  TGI: 23 µM
SNB-75 CNS
  GI50: 6.8 µM
  TGI: 34.5 µM
A498 renal
  GI50: 16.3 µM
  TGI: > 100 µM
K-562 leukemia
  GI50: 0.351 µM
  TGI: 1.87 µM
SR leukemia
  GI50: 0.375 µM
  TGI: 2.25 µM
UACC-62 melanoma
  GI50: 10.1 µM
  TGI: 25.9 µM
